For data set [1], the system named is fungi. As to the kind of experiment: Fungal growth on tubers exposed to compounds in headspace gas for 7 days (Example 1). On Fungal growth: key: -: no fungi visible; +: = some fungi; ++: heavy fungal growth. Type of data set: in vivo. An excerpt:
(control flasks lacked any compounds).

Data set [2] is described as follows: Theoretical saturated headspace concentration calculated from known vapor pressures. Type of data set: physicochemical. The note with it: calculated from known vapor pressures by Ideal Gas Law. The method, then:
Because these compounds were difficult to quantitate by gas chromatography at the concentration levels in saturated headspaces, theoretical saturated concentrations were calculated by converting known vapor pressures of each compound at 25° C. to molar concentrations using the Ideal Gas Law, […], where n/V is the molar concentration, P is the partial pressure (atm), R is the Ideal Gas constant (0.0821 l atm/mol ° K.), and T is the temperature (° K.).

Data set [3] deals with potato tubers. As to the kind of experiment: Sprout inhibition of tubers exposed to compounds in headspace gas for 7 days (Example 1). Type of data set: in vivo, Solanum tuberosum L. cv `Norchip`. The note with it: 7 days in saturated headspace gas, 25° C.; for % Eyes Sprouted: dark, control 100, LSD (0.05) 12.
In data set [4] the test system is fungi. As to the kind of experiment: Fungal growth on tubers after removal from exposure to volatilized aromatics (Example 2). Type of data set: in vivo. The method, then: (§1) Each treatment consisted of placing the tubers in sealed 9.2 l flasks containing excess levels of the treatment compounds at 25° C. as in Example 1. Three tubers were then removed from each treatment after 1, 2, 4, 7, and 10 days, and placed in flasks containing fresh humidified air (free of any additional volatilized compounds) at 25° C. Control tubers were placed in sealed flasks lacking any added compounds and three were removed after 1 and 10 days. Fourteen days after removal from the sealed flasks containing treatment compounds, all tubers were examined for percentage of eyes sprouted, tuber texture, and fungal growth. Each treatment was replicated once and each experiment was repeated once.

The test system of data set [5] is potato tubers. As to the kind of experiment: Tuber texture and quality 14 days after direct application of aromatic compounds (Example 3). Particulars: for Tuber Texture: control SS.
Procedure: (§2) Because the aromatic aldehydes and alcohols may be applied to the stored potatoes by methods other than as volatiles, direct application of the compounds either as pure chemicals or as emulsions was also studied. Emulsions were prepared as either 1% or 10% (v/v) of each compound in distilled water containing 0.05% (v/v) Tween 80 as an emulsifier (control tubers were treated with Tween 80 only). Tubers were treated by dipping each tuber in the test emulsion for 10 seconds, whereupon excess liquid was allowed to drain off. Pure compounds in liquid phase were applied with an atomizing sprayer, ensuring that the entire tuber surface was coated. Each tuber was sprayed with approximately 0.1-0.2 ml of each compound tested. Six tubers per treatment were used, with two replicates, and all experiments were repeated once.
For data set [6] the following is noted: cited from earlier work; for Temperature at Which Vapor Pressure Equals 1 mm Hg: vapor pressure 1 mm Hg.
Data set [7] has as its system potato tubers. As to the kind of experiment: Tuber texture/quality after exposure to compounds in headspace gas for 7 days (Example 1). Particulars: 7 days in saturated headspace gas, 25° C.
Data set [8] relates to fungi. As to the kind of experiment: Fungal growth 14 days after direct application of aromatic compounds (Example 3). Further: key: -: no fungi visible; +: = some fungi; ++: heavy fungal growth. Type of data set: in vivo. Particulars: control +.
Procedure: as §2
The test system of data set [9] is potato tubers. As to the kind of experiment: Tuber sprouting 14 days after direct application of aromatic compounds (Example 3). Type of data set: in vivo, Solanum tuberosum L. cv `Norchip`. The note with it: for % Eyes Sprouted: 25° C., control 98, LSD (0.05) 14.
Procedure: as §2
Data set [10] has as its system potato tubers. As to the kind of experiment: Tuber sprouting after removal from exposure to volatilized aromatics for 1, 2, 4, 7 or 10 days (Example 2). Type of data set: in vivo, Solanum tuberosum L. cv `Norchip`. The note with it: exposure for 10 days, 75 days after removal.
The test system of data set [11] is potato tubers. The description is as above. Type of data set: in vivo, Solanum tuberosum L. cv `Norchip`. Particulars: 14 days after removal; for % Eyes Sprouted: 25° C., LSD (0.05) 24. The procedure: as §1
The test system of another data set is potato. Particulars: Aliaga and Feldheim (1985); cited from earlier work.
Where [12] appears, read: 7 days in saturated headspace gas, 25° C.
Setting [13] is: 7 days in saturated headspace gas, 25° C., control ++.
The mark [14] stands for this setting: 1 day exposure, 14 days after removal, control +.
Where [15] appears, read: 4 days exposure, 14 days after removal.
Setting [16] is: 7 days exposure, 14 days after removal.
Where [17] appears, read: 10 days exposure, 14 days after removal, control +.
Setting [18] is: 2 days exposure, 14 days after removal.

Each structure is given as a SMILES string.

In the case of `O=CC=Cc1ccccc1` [Cinnamaldehyde], in the data set on fungi [1] (setting [12]), the “effect on fungal growth” value is on record as “prevented any visible fungal growth”. The “Fungal Growth” value with fungi [1] (setting [13]) is “-”; in the data set with fungi [4] (setting [14]), “-”; in the data set on fungi [4] (setting [15]), “-”; in the data set on fungi [4] (setting [16]), “-”; with fungi [4] (setting [17]), “-”; in the data set on fungi [4] (14 days after removal from exposure) it was “a small amount of mycelia was detected in a bruised area”. Also, the “Fungal Growth” value in the data set on fungi [8] (1% emulsion (dip)) is “-”; in the data set on fungi [8] (100% (pure, sprayed)) it was “-”. In addition, in data set [2], the “Concentration of Saturated Headspace at 25° C.” value (from here on “Concentration”) is 1900 nM. For the same compound, the “effect on tuber sprouting” value in the data set on potato tubers [3] is reported as “completely inhibited sprouting”. In addition, the “% Eyes Sprouted” value in the data set with potato tubers [3] amounted to 0%; with potato tubers [9] (1% emulsion (dip)), 0%; in the data set with potato tubers [9] (10% emulsion (dip)) it was 0%; in the data set with potato tubers [9] (100% (pure, sprayed)) it was 0%; with potato tubers [11] (1 day exposure, control 96) it was 62%; in the data set on potato tubers [11] (2 days exposure), 80%. Besides, the “% Eyes Sprouted” value with potato tubers [11] (4 days exposure) is reported as 64%; with potato tubers [11] (7 days exposure), 24%; in the data set with potato tubers [11] (10 days exposure, control 100) it was 0%. Also, the “tuber condition” value is “remained hard, with no necrosis or surface pitting” in the data set with potato tubers [5] (1% emulsion); “firm and appeared healthy” in the data set with potato tubers [7]. Besides, the “Tuber Texture” value with potato tubers [5] (10% emulsion (dip)) is given as “S,N”; in the data set on potato tubers [5] (100% (pure, sprayed)) it was “S,N”. In addition, the “Temperature at Which Vapor Pressure Equals 1 mm Hg” value (from here on “Temperature”) in data set [6] was 76.1 °C. In data set [6], the “Solubility in Water at 25° C.” value is “sl. soluble”. For the same compound, the “inhibition of sprouting” value with potato tubers [9] (1% emulsion) was “completely inhibited sprouting without damaging the potato tubers”. The “sprouting” value with potato tubers [10] was “remained unsprouted”. Also, the “inhibition of tuber sprouting” value in the data set with potato tubers [11] (exposure for 7 or fewer days) is “did not completely inhibit sprouting”; in the data set with potato tubers [11] (exposure for 10 days) it was “completely inhibited sprouting”.
On to `CC(C)c1ccc(C=O)cc1` [Cuminaldehyde], for which, in the data set on fungi [1] (setting [12]), the “effect on fungal growth” value was “prevented any visible fungal growth”. In addition, the “Fungal Growth” value in the data set on fungi [1] (setting [13]), in the data set with fungi [4] (setting [14]), with fungi [4] (setting [18]), in the data set with fungi [4] (setting [15]), in the data set with fungi [4] (setting [16]) and in the data set with fungi [4] (setting [17]) was “-” throughout. For the same compound, the “Fungal Growth” value in the data set with fungi [8] (1% emulsion (dip)) is recorded as “-”; in the data set with fungi [8] (100% (pure, sprayed)), “-”. In addition, the “Concentration” value in data set [2] is 6400 nM. Besides, the “effect on tuber sprouting” value in the data set with potato tubers [3] was “completely inhibited sprouting”. In addition, the “% Eyes Sprouted” value in the data set on potato tubers [3] is reported as 0%; with potato tubers [9] (1% emulsion (dip)), 5%; with potato tubers [9] (10% emulsion (dip)) it was 43%; with potato tubers [9] (100% (pure, sprayed)) it was 0%; with potato tubers [11] (1 day exposure, control 96), 63%; with potato tubers [11] (2 days exposure), 68%. The “% Eyes Sprouted” value is on record as 49% in the data set with potato tubers [11] (4 days exposure); 8% in the data set with potato tubers [11] (7 days exposure); 0% in the data set on potato tubers [11] (10 days exposure, control 100). For the same compound, the “Tuber Texture” value was “SS,N” with potato tubers [5] (10% emulsion (dip)) and “SS,N” with potato tubers [5] (100% (pure, sprayed)). In addition, the “Temperature” value in [6] was 58.0 °C. Moreover, the “Solubility in Water at 25° C.” value in data set [6] was “insoluble”. The “tuber condition” value in the data set with potato tubers [7] is “firm and appeared healthy”. Moreover, the “sprouting” value in the data set on potato tubers [10] was “remained unsprouted”. The “inhibition of tuber sprouting” value in the data set on potato tubers [11] (exposure for 7 or fewer days) was “did not completely inhibit sprouting”; in the data set with potato tubers [11] (exposure for 10 days), “completely inhibited sprouting”.
For `CCOC(=O)C=Cc1ccccc1` [Ethyl cinnamate], the “Fungal Growth” value in the data set with fungi [1] (setting [13]) is listed as “+”. Moreover, in data set [2], the “Concentration” value was 700 nM. Moreover, in the data set on potato tubers [3], the “effect on tuber sprouting” value is “suppressed sprouting to some degree” and the “% Eyes Sprouted” value came to 64%. In data set [6], the “Temperature” value was 87.6 °C and the “Solubility in Water at 25° C.” value is on record as “insoluble”.
Turning to `C=CCc1ccc(O)c(OC)c1` [Eugenol, reference compound], the “effect on fungal growth” value in the data set with fungi [1] (setting [12]) is listed as “especially heavy growth”. Also, the “Fungal Growth” value with fungi [1] (setting [13]) was “++”; in the data set with fungi [8] (1% emulsion (dip)), “++”; in the data set on fungi [8] (100% (pure, sprayed)), “-”. In addition, the “Concentration” value in data set [2] is 1600 nM. The “effect on tuber sprouting” value with potato tubers [3] is given as “no significant effect on tuber sprouting”. Besides, the “% Eyes Sprouted” value in the data set with potato tubers [3] was 94%; in the data set on potato tubers [9] (1% emulsion (dip)), 32%; with potato tubers [9] (10% emulsion (dip)) it was 7%; with potato tubers [9] (100% (pure, sprayed)), 0%. In addition, the “Tuber Texture” value is “SS,N” with potato tubers [5] (10% emulsion (dip)) and “S,N” in the data set on potato tubers [5] (100% (pure, sprayed)). In addition, the “Temperature” value in [6] was 78.4 °C. The “tuber condition” value with potato tubers [7] is recorded as “remained firm”.
`O=CCCc1ccccc1` [Hydrocinnamaldehyde, 3-phenyl-propanal]: the “effect on fungal growth” value in the data set on fungi [1] (setting [12]) is listed as “prevented any visible fungal growth”. Also, the “Fungal Growth” value with fungi [1] (setting [13]), in the data set with fungi [4] (setting [14]), with fungi [4] (setting [18]), in the data set on fungi [4] (setting [15]), in the data set on fungi [4] (setting [16]) and with fungi [4] (setting [17]) was “-” each time. Moreover, the “Fungal Growth” value in the data set on fungi [8] (1% emulsion (dip)) is listed as “-”; with fungi [8] (10% emulsion (dip)), “++”; with fungi [8] (100% (pure, sprayed)) it was “-”. In addition, the “effect on tuber sprouting” value with potato tubers [3] is “completely inhibited sprouting”. For the same compound, the “% Eyes Sprouted” value in the data set with potato tubers [3] was determined as 0%; in the data set on potato tubers [9] (1% emulsion (dip)), 25%; with potato tubers [9] (10% emulsion (dip)), 0%; in the data set on potato tubers [9] (100% (pure, sprayed)) it was 0%; in the data set with potato tubers [11] (1 day exposure, control 96), 90%; with potato tubers [11] (2 days exposure) it was 79%. In addition, the “% Eyes Sprouted” value with potato tubers [11] (4 days exposure) is 66%; in the data set with potato tubers [11] (7 days exposure), 51%; in the data set with potato tubers [11] (10 days exposure, control 100), 24%. In addition, the “Tuber Texture” value is listed as “S” in the data set on potato tubers [5] (10% emulsion (dip)) and “S,N” with potato tubers [5] (100% (pure, sprayed)). In [6], the “Solubility in Water at 25° C.” value is “sl. soluble”. Also, in the data set with potato tubers [7], the “tuber condition” value is “firm and appeared healthy”.
On to `COC(=O)C=Cc1ccccc1` [Methyl cinnamate], for which the “effect on fungal growth” value with fungi [1] (setting [12]) is reported as “suppressed fungal growth”. Further, in the data set with fungi [1] (setting [13]), the “Fungal Growth” value is listed as “-”. Further, the “Concentration” value in [2] was 1600 nM. Besides, in the data set with potato tubers [3], the “effect on tuber sprouting” value is “suppressed sprouting to some degree” and the “% Eyes Sprouted” value amounted to 16%. Moreover, in data set [6], the “Temperature” value is 77.4 °C and the “Solubility in Water at 25° C.” value is given as “insoluble”.
With `Oc1ccccc1` [Phenol], in the data set with fungi [1] (in vivo), the “Fungal Growth” value is “-” and the “effect on fungal growth” value was “prevented any visible fungal growth”. Further, the “Concentration” value in data set [2] was 21000 nM. Moreover, in the data set on potato tubers [3], the “effect on tuber sprouting” value is on record as “completely inhibited sprouting” and the “% Eyes Sprouted” value worked out at 0%. Also, the “Temperature” value in data set [6] was 40.1 °C. The “tuber condition” value in the data set on potato tubers [7] is “blackened, soft to the touch, and displayed evident tissue necrosis”. In addition, in the data set on potato tubers [7] (control SS), the “Tuber Texture” value was “S,N”.
Regarding `C=C(C)C1CC=C(C)CC1` (centres unmarked) [limonene], in the data set on potato, the “effectiveness of main oil components in inhibiting sprouting, weight loss and rot” value is recorded as “effective”.
`CC1CCC(C(C)C)C(=O)C1` (centres unmarked) [menthone/isomenthone]: the “effectiveness of main oil components in inhibiting sprouting, weight loss and rot” value in the data set with potato is “effective”.
In the case of `CC(C)=C1CC[C@@H](C)CC1=O` [pulegone], the “effectiveness of main oil components in inhibiting sprouting, weight loss and rot” value in the data set with potato is “effective”.
Take `CC1=CCC2CC1C2(C)C` (stereo not drawn) [α-pinene]: the “effectiveness of main oil components in inhibiting sprouting, weight loss and rot” value in the data set on potato is “effective”.
With `C=C1CCC2CC1C2(C)C` (stereo not drawn) [β-pinene], in the data set with potato, the “effectiveness of main oil components in inhibiting sprouting, weight loss and rot” value is on record as “effective”.

These data come from US5129951A, “Aromatic aldehydes and alcohols as potato tuber sprout inhibitors” (priority 1991, dated 1992).
